Experimental data: patent US9096607B2, “Tumor necrosis factor inhibitors” (THE TRUSTEES OF THE UNIVERSITY OF PENNSYLVANIA, priority 2005, dated 2015)

Test system: L929 cells
Experiment: Inhibition of TNF-α mediated cytolysis of L929 cells (Alamar Blue)
Assay type: cell-based, murine
Conditions: TNF-α 100 pg/mL, actinomycin D 1 μM; for % Inhibition at: 25 μM: 25 μM compound; for % Inhibition at: 50 μM: 50 μM compound; for % Inhibition at: 100μM: 100 μM compound
Source text: L929 cultured murine fibroblasts cells were obtained from American Type Culture Collection (Manassas, Va.). Tissue culture reagents were from Invitrogen or Sigma-Aldrich. TNF-α and Actinomycin D were from Sigma-Aldrich. Alamar Blue reagents (Cell Titer Blue™) were from Promega. The test compounds I-1 through I-16, II-1 through II-8, and III-1 through III-3 were obtained commercially or can be prepared as described above. The test compounds were individually dissolved in dimethylsulfoxide (DMSO). The test compounds were maintained at 4° C. when not in use. Other reagents were high-purity (ACS-grade, HPLC-grade, MilliQ water, or similar).
Stock L929 cells were grown on tissue culture plastic in complete DMEM (Dulbecco's Modified Eagles Medium) supplemented with 10% FBS (Fetal Bovine Serum), NEAA (non-essential amino acids), and glutamine. L929 cells were plated using the same medium on 96-well tissue culture plates at high density (i.e., ˜4×10^4 cells/well, or similar) before use.
Approximately 20 h after plating, the L929 cells on 96-well plates were re-fed with fresh medium containing one of the test compounds in a concentration selected from 100 μM, 50 μM, 25 μM as a “pre-treatment.” Approximately 30-60 min later, samples were treated with an additional amount of test compound (in the same amount and at the same concentration as the pre-treatment) prepared in medium containing TNF-α (200 pg/mL), and actinomycin D (2 μM). The final concentration of TNF-α in assays was 100 pg/mL. The final concentration of actinomycin D in assays was 1 μM. The plates were incubated for an additional 22-23 h, the Alamar Blue assay reagents were added and metabolic cell viability was determined from reduction of a fluorogenic Alamar Blue derivative.
The temperature was maintained at 37° C. with 5% CO2 and humidified. The metabolic viability was measured 1-2 h after addition of assay reagents/Alamar Blue derivative using TECAN SaFire fluorescence plate reader (Tecan Group Ltd., Maennedorf, Switzerland).
Inhibition of TNF-α induced cytolysis by a test compound (X) at a given concentration (y) was calculated as follows: […]

Row | Structure (SMILES) | % Inhibition at: 25 μM | % Inhibition at: 50 μM | % Inhibition at: 100μM
1 | COc1ccc([C+](c2ccc(OC)cc2)c2ccc(OC)cc2)cc1 [Compound I-7, 4,4′,4″-Trimethoxytrityl tetrafluoroborate] | 15.1% | 30.2% | 25.9%
2 | CC(=O)Oc1cc2c(cc1Cl)C1(OC(=O)c3ccccc31)c1cc(Cl)c(OC(C)=O)cc1O2 [II-9, 2′,7′-Dichlorofluorescein diacetate] | 6.3% | 10.5% | 22.0%
3 | CC(c1ccccc1)(c1ccc(OC(=O)CCl)cc1)c1ccc(OC(=O)CCl)cc1 [Compound I-15, 1,1-Bis-(4-chloroacetoxyphenyl)-1-phenylethane] | 29.7% | 73.8% | −19.8%
4 | O=C([O-])c1ccccc1C1c2ccc(O)cc2Oc2cc(O)ccc21.[K+] [II-8, Potassium 2-(3,6-dihydroxy-9H-xanthen-9-yl)-benzoate] | 23.6% | 24.7% | 25.6%
5 | NC(=O)c1ccccc1C1c2ccc(Cl)cc2Oc2cc(Cl)ccc21 [II-6, 2-(3,6-Dichloro-9H-xanthen-9-yl)-benzamide] | 43.3% | −6.1% | −21.7%
6 | Cc1cc(C(C)(c2ccc(O)cc2)c2cc(C)c(N)c(C)c2)cc(C)c1N [Compound I-18, 1,1-Bis(4-amino-3,5-dimethylphenyl)-1-(4-hydroxyphenyl)-ethane] | 22.6% | 36.6% | 53.8%
7 | COC(=O)COc1ccc(C(C)(c2ccc(O)cc2)c2ccc(O)cc2)cc1 [Compound I-11, 1,1-Bis-(4-hydroxyphenyl)-1-(4-methoxycarbonylmethoxyphenyl)ethane] | 13.9% | 36.7% | 14.8%
8 | COC(=O)COc1ccc(C(C)(c2ccc(OCC(=O)OC)cc2)c2ccc(OCC(=O)OC)cc2)cc1 [Compound I-4, 1,1,1-Tris-(4-methoxycarbonylmethoxyphenyl)ethane] | 18.4% | 27.9% | −11.6%
9 | O=C(O)c1ccccc1C1c2ccc(O)cc2Oc2cc(O)ccc21 [II-5, 2-Hydroxy-1,1-bis-hydroxymethyl-ethyl-ammonium; 2-(3,6-dihydroxy-9H-xanthen-9-yl)-benzoate] | 25.1% | 16.3% | 21.5%
10 | CN(C)c1ccc(C(O)(c2ccccc2)c2ccc(N(C)C)cc2)cc1 [Compound I-17, 1,1-Bis(4-dimethylaminophenyl)-1-phenyl-methanol] | −16.0% | −17.0% | −17.9%
11 | CC(c1ccc(O)cc1)(c1ccc(OCC(=O)O)cc1)c1ccc(OCC(=O)O)cc1.[Na+].[Na+].[Na+] [Compound I-12, 1,1-Bis-(4-carboxymethoxy-phenyl)-1-(4-hydroxyphenyl)ethane, trisodium salt] | 14.5% | 16.9% | 14.2%
12 | CC(c1ccc(OCC(=O)[O-])cc1)(c1ccc(OCC(=O)[O-])cc1)c1ccc(OCC(=O)[O-])cc1.[Na+].[Na+].[Na+] [Compound I-3, 1,1,1-Tris-(4-carboxymethoxyphenyl)ethane, trisodium salt] | 23.0% | 17.7% | 12.4%
13 | O=C(O)c1ccccc1C1c2ccc(Cl)cc2Oc2cc(Cl)ccc21 [II-3, 2-(3,6-Dichloro-9H-xanthen-9-yl)-benzoic acid] | 36.2% | 45.6% | 52.4%
14 | CC(=O)Oc1ccc(C(=NNc2cccc([N+](=O)[O-])c2)c2ccc(OC(C)=O)cc2)cc1 [III-2, 4,4′-Diacetoxybenzophenone-3-nitrophenylhydrazone] | 26.9% | 42.0% | −19.8%
15 | COc1ccc(C(O)(c2ccc(OC)cc2)c2ccc(OC)cc2)cc1 [Compound I-6, 1,1,1-Tris-(4-methoxyphenyl)methanol] | 12.0% | 25.9% | 32.5%
16 | CC(=O)Oc1ccc(C2(c3ccc(OC(C)=O)cc3)C(=O)Nc3ccccc32)cc1 [Compound I-16, 3,3-Bis[4-(acetyloxy)phenyl]-1,3-dihydro-2H-indol-2-one] | 4.3% | 11.5% | 17.1%
17 | CC(=O)Oc1ccc2c(c1)Oc1cc(OC(C)=O)ccc1C21OC(=O)c2ccccc21 [II-2, 3′,6′-Fluorescein diacetate] | 25.4% | 23.5% | 26.0%
18 | CN(C)c1ccc(C(O)(c2ccc(N(C)C)cc2)c2ccc(N(C)C)cc2)cc1 [Compound I-1, 1,1,1-Tris-(4-dimethylaminophenyl)methanol] | 44.0% | 63.3% | 40.9%
19 | O=C(O)c1ccccc1C1c2ccc(O)cc2Oc2cc(O)ccc21 [II-4, 2-(3,6-Dihydroxy-9H-xanthen-9-yl)-benzoic acid] | 33.3% | 23.6% | 23.2%
20 | O=[N+]([O-])c1cccc(NN=C(c2ccc(O)cc2)c2ccc(O)cc2)c1 [III-1, N-(4,4′-Dihydroxybenzhydrylidene)-N′-(3-nitrophenyl)hydrazine] | 33.2% | 42.5% | −20.3%
21 | CC(c1ccc(OC(=O)CCl)cc1)(c1ccc(OC(=O)CCl)cc1)c1ccc(OC(=O)CCl)cc1 [Compound I-13, 1,1,1-Tris-(4-chloroacetoxyphenyl)ethane] | 35.4% | 72.2% | 38.9%
22 | O=C1OC2(c3ccc(Cl)cc3Oc3cc(Cl)ccc32)c2ccccc21 [II-1, 3′,6′-Dichlorofluorescein] | 20.7% | 8.8% | 7.6%
23 | O=[N+]([O-])c1cccc(NN=C(c2ccc(Cl)cc2)c2ccc(Cl)cc2)c1 [III-3, N-(4,4′-Dichlorobenzhydrylidene)-N-(3-nitrophenyl)hydrazine] | 6.6% | 3.4% | 8.1%
24 | COc1ccc(C(C(=O)[O-])(c2ccc(OC)cc2)c2ccc(OC)cc2)cc1.[Na+] [Compound I-5, Sodium 1,1,1-tris-(4-methoxyphenyl)acetate] | 1.7% | 5.0% | 12.1%
25 | COc1ccc(C(C(=O)O)(c2ccc(OC)cc2)c2ccc(OC)cc2)cc1 [Compound I-8, 1,1,1-Tris-(4-methoxyphenyl)acetic acid] | 2.7% | 6.9% | 18.4%
26 | CC(=O)Oc1ccc(C(C)(c2ccccc2)c2ccc(OC(C)=O)cc2)cc1 [Compound I-10, 1,1-Bis-(4-acetoxyphenyl)-1-phenyl-ethane] | 20.7% | 46.6% | 71.9%
27 | COC(=O)COc1ccc(C(C)(c2ccc(OCC(=O)OC)cc2)c2ccc(OC(C)=O)cc2)cc1 [Compound I-14, 1-(4-Acetoxy-phenyl)-1,1-bis-(4-methoxycarbonylmethoxyphenyl)ethane] | 13.4% | 30.2% | 45.3%
